According to patent US10660789B2, “1,4-dihydropyridine derivatives with HSP modulating activity” (Richter Gedeon NYRT., priority 2011, dated 2020):
Structures can show the parent of a compound that is named as a salt. Where two headings read alike, the source gives them in different places. One block for each molecule: values may come before it.

Assays:
[1] = tested on: B16F10 melanoma cells; test: Vincristine cytotoxicity in combination, B16F10 melanoma cells; assay type: cell-based; settings: Mus musculus, read-out: IC50 of VR (50% inhibition of cell growth)
Procedure: Cells were homogenously distributed on 96-well plates in 5×10^3 cells/well density then incubated for 24 h at 37° C. On the next day cells were treated with compounds of the invention in 100 nM-200 μM concentration range for 24 h. The viability of the cells were measured using alamarBlue® assay kit according to the supplier's instructions.
The rationale for combination chemotherapy is to use drugs that work by different mechanisms of action, thereby decreasing the likelihood that resistant cancer cells will develop.

[2] = tested on: Hsp25 promoter; test: Hsp25 promoter-GFP reporter in SHSY5Y cells, flow cytometry; assay type: cell-based, human
Procedure: (§1) The Hsp co-inducing effect of the compounds on stress response was tested on B16 mouse melanoma and SHSY5Y human neuroblastoma cell lines stably transfected with Hsp promoter probing plasmids. This kind of promoter probing, using the promoter region of a given gene conjugated with fluorescent protein is used as a best and fastest test system for finding drugs which modulate the activity of the gene followed by the given promoter (Wyshocka et al., Mol. Cel. Biochem. 215:153-156, 2000).
(§2) Reporter plasmids, containing the Hsp70 and/or Hsp25 promoter conjugated to either YFP or GFP (yellow or green fluorescent protein), were stably transfected into the cells and the expression of YFP or GFP was followed by flow cytometry. Cells were either kept at 37° C. or exposed to heat shock at 42° C. for 1 hour followed by a 16 hour recovery period at 37° C. in the presence or absence of different concentrations of the test compound. After recovery the expression of YFP or GFP which is in straight correlation with the promoter activity of Hsp70 or Hsp27 genes was followed by measuring the fluorescence intensity of the cells by flow cytometry. Fluorescence intensity is in straight correlation with the amount of fluorescent protein (GFP or YFP) produced under the control of hsp promoter. The mean fluorescence intensity of YFP or GFP produced is shown as “Hsp promoter activity”.
The fluorescence intensity of GFP and YFP […].
Selectivity of the Hsp25 co-inducing activity of compound of Ex. 11 is shown on FIG. 3. […] The fluorescence intensity of GFP produced as a result of Hsp25 promoter activity was measured by flow cytometry.
(§3) Cells were homogenously distributed on 6-well plates in 1×10^5 cells/well density. B16-pHsp25-GFP and B16-pHsp70-YFP melanoma cells were grown in RPMI-1640 medium supplemented with 10% Fetal bovine serum (FBS), penicillin (200 units/ml), streptomycin (200 μg/ml) and 2 mM L-Glutamine. […] The changes in cells' fluorescence were detected using BD FACSCalibur flow cytometer.

[3] = tested on: Hsp25; test: Other in vitro effects, Hsp25 (Table 3); assay type: cell-based, mouse and human; set-up: key: +: co-inducing activity; −: silencing activity; 0: with the experimental methods applied no other HSP modulating effects could be identified
Procedure: as §1, §2, §3
SY-SY5Y and B16 cells were extracted in NP-40 lysis buffer (PBS pH 7.4, 1% protease inhibitor coctail and 1% Triton X-100). […] The immune complexes were detected with chemo-luminescent substrate of peroxidase according to the supplier's instructions. Images taken from the membranes were analyzed using AlphaEase FC software.

[4] = tested on: B16 melanoma cells; test: Experimental metastatic melanoma, B16 cells i.v. in C57Bl/6 mice; assay type: in vivo, mouse
Procedure: The anticancer activity was tested in C57Bl/6 mouse (B6), the best known syngeneic mouse model of experimental metastatic melanoma. C57Bl/6 mice injected with B16 melanoma cells subcutaneously or intramuscularly develop primary tumors that, in a part of the recipients, give rise to lung metastases. When the B16 cells are injected intravenously via the tail vein, a fraction of the tumor cells homes directly in the lung, where they develop into multiple independent tumor nodules termed “experimental metastases”. Although lung tumors are the most prominent, brain, liver and kidney tumors are also detectable in intravenously injected mice. Since the behavior of the tumor-bearing mice is quite uniform, the model is suitable for simultaneous testing of high numbers of drug candidates in a limited number of experimental animals.
The in vivo tumor experiments were performed with cultured B16 cells that were previously re-isolated from lung metastatic nodules, therefore their metastatic potential was kept optimal. The tumor cells liberated from the tumor mass by trypsin digestion were expanded in cell culture and stored in aliquots in liquid nitrogen, while the number of in vitro passages was kept to a minimum. In the experiments, B6 mice were injected with 100 000 B16 melanoma cells i.v. via the tail vein. The drug candidates were dissolved in physiological saline then they were administered i.p. in a volume of 100 ul. Daily treatment of tumor bearing mice started at day 7 after the tumor injection. The body weight of the mice was measured at day 1, 7, 14 and 21. The survival of the tumor bearing mice was recorded daily. All experiments were performed in accordance with national and European animal welfare guidelines. To prevent unnecessary suffering, moribund mice were euthanized.

[5] = Acute toxicity (LD50); settings: in vivo
[6] = tested on: Ca^2+ channel; test: Hsp modulating versus Ca2+ antagonist effect
[7] = tested on: Hsp70 promoter; test: Hsp70 promoter-YFP reporter in B16 F-10 melanoma cells, flow cytometry; assay type: cell-based, mouse; settings: stress induced, FIG. 4
Procedure: as §1
Reporter plasmids, containing the Hsp70 and/or Hsp25 promoter conjugated to either YFP or GFP (yellow or green fluorescent protein), were stably transfected into the cells and the expression of YFP or GFP was followed by flow cytometry. […] After recovery the expression of YFP or GFP which is in straight correlation with the promoter activity of Hsp70 or Hsp27 genes was followed by measuring the fluorescence intensity of the cells by flow cytometry. Fluorescence intensity is in straight correlation with the amount of fluorescent protein (GFP or YFP) produced under the control of hsp promoter. The mean fluorescence intensity of YFP or GFP produced is shown as “Hsp promoter activity”.
Some of the compounds are Hsp70 selective stress protein response silencers as shown on FIG. 4. […] The fluorescence intensity of YFP produced as a result of Hsp70 promoter activity was measured by flow cytometry. […]

SMILES: CC[C@]1(O)C[C@H]2CN(CCc3c([nH]c4ccccc34)[C@@](C(=O)OC)(c3cc4c(cc3OC)N(C=O)[C@H]3[C@@](O)(C(=O)OC)[C@H](OC(C)=O)[C@]5(CC)C=CCN6CC[C@]43[C@@H]65)C2)C1 [VR, vincristine, reference compound]
- IC50 ([1]; B16-F10, VR treatment alone): 1.3 nM

SMILES: COC(=O)C1=C(CCN2CCCCC2)N(C)C(CCN2CCCCC2)=C(C(=O)OC)C1c1ccc(C(F)(F)F)cc1 [Example 17, Dimethyl 1-methyl-2,6-bis-(2-piperidin-1-yl-ethyl)-4-(4-trifluoromethylphenyl)-1,4-dihydropyridine-3,5-dicarboxylate dihydrochloride]
- Other in vitro effects: Hsp25 [3]: Hsp25 0
- Increase in life span ([4]; 1 mg/kg i.p. daily from day 7 to day 18): 23.1%
- Mean survival time ([4]; 1 mg/kg i.p. daily from day 7 to day 18, FIG. 8): 31.0 ± 3.7 days
- Increase in life span ([4]; 3 mg/kg i.p. daily from day 7 to day 18): 40.8%
- Mean survival time ([4]; 3 mg/kg i.p. daily from day 7 to day 18, FIG. 8): 35.55 ± 3.80 days
- Increase in life span ([4]; 10 mg/kg i.p. daily from day 7 to day 18): 53.7%
- Mean survival time ([4]; 10 mg/kg i.p. daily from day 7 to day 18, FIG. 8): 38.10 ± 10.45 days
- drug-related mortality and weight loss ([4]; 10 mg/kg i.p. daily, tumor bearing mice): did not produce drug-related mortality and statistically significant drug related weight loss
- In vivo efficacy ([4]; model in which efficacy was shown): Cancer mono-
- LD50 [5]: 150 mg/kg

SMILES: COC(=O)C1=C(C#N)NC(C)=C(C(=O)OC(C)C)C1c1cccc([N+](=O)[O-])c1 (centres unmarked) [Nilvadipine, reference compound]
- index of EC50 HSP-modulating/Ca^2+ antagonist effect [6]: about 1

Further lines, with some results ahead:

- melting point: 135 to 137 °C
SMILES: CCN1C(C)=C(C(=O)OC)C(c2ccc(C(F)(F)F)cc2)C(C(=O)OC)=C1C [Example 11, Dimethyl 1-ethyl-2,6-dimethyl-4-(4-trifluoromethylphenyl)-1,4-dihydropyridine-3,5-dicarboxylate]
- activity of the promoter of the Hsp25 gene at 37° C. ([2]; 37° C.): does not affect the activity of the promoter of the Hsp25 gene at 37 °C
- Hsp25 co-inducing activity ([2]; heat stress, FIG. 3): strong, concentration dependent co-inducer for Hsp25 stress protein
- Other in vitro effects: Hsp25 [3]: Hsp25+

- melting point: 136 to 138 °C
SMILES: CCC1=C(C(=O)OC)C(c2ccc(C(F)(F)F)cc2)C(C(=O)OC)=C(CC)N1C [Example 27, Dimethyl 2,6-diethyl-1-methyl-4-(triflouromethyl-phenyl)-1,4-dihydropyridine-3,5-dicarboxylate]
- Hsp70 silencer activity [7]: strong concentration dependent silencer for stress induced Hsp70 gene activity
- Ca antagonist effect [6]: no Ca antagonist effect
- IC50 ([1]; B16-F10, VR with Ex 27 at 10 μM): 0.4 nM
